Experimental data as given in US10131652B2, “Pyrimidinyloxy benzene derivatives as herbicides” (E. I. DU PONT DE NEMOURS AND COMPANY, priority 2014, dated 2018).
Where two headings read alike, the source gives them in different places.

How the values were obtained:
Test in all cases: Test E pre-/postemergence plant response
Type in all cases: in vivo
[1] = test system: Italian ryegrass (Lolium multiflorum); conditions: scale 0 to 100, read-out: Plant response rating, Ryegrass, Italian; for pest or weed control at 16 g/ha: 16 g ai/ha; for pest or weed control at 31 g/ha: 31 g ai/ha; for pest or weed control at 62 g/ha: 62 g ai/ha; for pest or weed control at 125 g/ha: 125 g ai/ha
Summary of the method: (§1)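 Visual scores on a 0–100 scale (100 = complete control) were assigned against untreated controls 7–21 days after treatment in a controlled environment. Compounds, formulated with solvent plus surfactant, were applied to pre-emergence silt-loam sowings or to 1- to 4-leaf plants (2–18 cm) in potting medium.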

[2] = test system: canarygrass (Phalaris minor); conditions: scale 0 to 100, read-out: Plant response rating, Canarygrass; for pest or weed control at 16 g/ha: 16 g ai/ha; for pest or weed control at 31 g/ha: 31 g ai/ha; for pest or weed control at 62 g/ha: 62 g ai/ha; for pest or weed control at 125 g/ha: 125 g ai/ha
Summary of the method: as §1

[3] = test system: chickweed (common chickweed, Stellaria media); conditions: scale 0 to 100, read-out: Plant response rating, Chickweed; for pest or weed control at 16 g/ha: 16 g ai/ha; for pest or weed control at 31 g/ha: 31 g ai/ha; for pest or weed control at 62 g/ha: 62 g ai/ha; for pest or weed control at 125 g/ha: 125 g ai/ha
Summary of the method: as §1

[4] = test system: field poppy (Papaver rhoeas); conditions: scale 0 to 100, read-out: Plant response rating, Field Poppy; for pest or weed control at 16 g/ha: 16 g ai/ha; for pest or weed control at 31 g/ha: 31 g ai/ha; for pest or weed control at 62 g/ha: 62 g ai/ha; for pest or weed control at 125 g/ha: 125 g ai/ha
Summary of the method: as §1

kochia (Kochia scoparia) = conditions: Bassia scoparia, scale 0 to 100, read-out: Plant response rating, Kochia; for pest or weed control at 16 g/ha: 16 g ai/ha; for pest or weed control at 31 g/ha: 31 g ai/ha; for pest or weed control at 62 g/ha: 62 g ai/ha; for pest or weed control at 125 g/ha: 125 g ai/ha
Summary of the method: as §1

[5] = test system: pigweed (Amaranthus retroflexus); conditions: scale 0 to 100, read-out: Plant response rating, Pigweed; for pest or weed control at 16 g/ha: 16 g ai/ha; for pest or weed control at 31 g/ha: 31 g ai/ha; for pest or weed control at 62 g/ha: 62 g ai/ha; for pest or weed control at 125 g/ha: 125 g ai/ha
Summary of the method: as §1

[6] = test system: spring barley (Hordeum vulgare); conditions: for plant injury at 16 g/ha: 16 g ai/ha; for plant injury at 31 g/ha: 31 g ai/ha; for plant injury at 62 g/ha: 62 g ai/ha; for plant injury at 125 g/ha: 125 g ai/ha
Summary of the method: as §1

[7] = test system: spring wheat (Triticum aestivum); conditions: scale 0 to 100, read-out: Plant response rating, Wheat, Spring; for plant injury at 16 g/ha: 16 g ai/ha; for plant injury at 62 g/ha: 62 g ai/ha; for plant injury at 125 g/ha: 125 g ai/ha
Summary of the method: as §1

[8] = test system: wild radish (Raphanus raphanistrum); conditions: scale 0 to 100, read-out: Plant response rating, Radish, Wild; for pest or weed control at 16 g/ha: 16 g ai/ha; for pest or weed control at 31 g/ha: 31 g ai/ha; for pest or weed control at 62 g/ha: 62 g ai/ha; for pest or weed control at 125 g/ha: 125 g ai/ha
Summary of the method: as §1

[9] = test system: windgrass (Apera spica-venti); conditions: scale 0 to 100, read-out: Plant response rating, Windgrass; for pest or weed control at 16 g/ha: 16 g ai/ha; for pest or weed control at 62 g/ha: 62 g ai/ha; for pest or weed control at 125 g/ha: 125 g ai/ha
Summary of the method: as §1

[10] = test system: winter wheat (Triticum aestivum); conditions: scale 0 to 100, read-out: Plant response rating, Wheat, Winter; for plant injury at 16 g/ha: 16 g ai/ha; for plant injury at 62 g/ha: 62 g ai/ha; for plant injury at 125 g/ha: 125 g ai/ha
Summary of the method: as §1

[11] = post-emergence, Postemergence, scale 0 to 100, read-out: Plant response rating, Barley, Spring
[12] = pre-emergence, Preemergence, scale 0 to 100, read-out: Plant response rating, Barley, Spring
[13] = post-emergence, 31 g ai/ha, Postemergence

Fc1cccc(Oc2ncc(Cl)cn2)c1-c1cc(C(F)F)on1 [Compound 55, 5-chloro-2-[2-[5-(difluoromethyl)-3-isoxazolyl]-3-fluorophenoxy]pyrimidine]
90%: pest or weed control at 31 g/ha ([4]; post-emergence, Postemergence) | pest or weed control at 31 g/ha ([5]; post-emergence, Postemergence)
10%: pest or weed control at 16 g/ha ([2]; post-emergence, Postemergence) | pest or weed control at 16 g/ha ([2]; pre-emergence, Preemergence) | plant injury at 16 g/ha [6, 11] | plant injury at 31 g/ha [6, 11] | plant injury at 16 g/ha [6, 12] | plant injury at 31 g/ha [6, 12] | pest or weed control at 31 g/ha [9, 13] | plant injury at 62 g/ha ([10]; pre-emergence, Preemergence)
75%: pest or weed control at 16 g/ha ([5]; pre-emergence, Preemergence) | pest or weed control at 16 g/ha ([8]; post-emergence, Postemergence)
80%: pest or weed control at 62 g/ha ([8]; post-emergence, Postemergence) | pest or weed control at 125 g/ha ([8]; post-emergence, Postemergence)
0%: pest or weed control at 16 g/ha ([1]; pre-emergence, Preemergence) | pest or weed control at 31 g/ha ([1]; pre-emergence, Preemergence) | plant injury at 16 g/ha ([10]; post-emergence, Postemergence)
25%: plant injury at 62 g/ha ([7]; post-emergence, Postemergence) | pest or weed control at 62 g/ha ([9]; post-emergence, Postemergence)
5%: plant injury at 16 g/ha ([7]; post-emergence, Postemergence) | pest or weed control at 16 g/ha ([9]; post-emergence, Postemergence) | pest or weed control at 16 g/ha ([9]; pre-emergence, Preemergence) | plant injury at 16 g/ha ([10]; pre-emergence, Preemergence)
15%: pest or weed control at 62 g/ha ([1]; post-emergence, Postemergence) | plant injury at 62 g/ha [6, 11] | plant injury at 31 g/ha [7, 13] | plant injury at 16 g/ha ([7]; pre-emergence, Preemergence) | plant injury at 62 g/ha ([7]; pre-emergence, Preemergence) | plant injury at 31 g/ha [10, 13]
100%: pest or weed control at 62 g/ha ([2]; pre-emergence, Preemergence) | pest or weed control at 125 g/ha ([2]; pre-emergence, Preemergence) | pest or weed control at 31 g/ha ([3]; pre-emergence, Preemergence) | pest or weed control at 62 g/ha ([3]; pre-emergence, Preemergence) | pest or weed control at 125 g/ha ([3]; pre-emergence, Preemergence) | pest or weed control at 62 g/ha ([4]; post-emergence, Postemergence) | pest or weed control at 16 g/ha ([4]; pre-emergence, Preemergence) | pest or weed control at 31 g/ha ([4]; pre-emergence, Preemergence) | pest or weed control at 62 g/ha ([4]; pre-emergence, Preemergence) | pest or weed control at 125 g/ha ([4]; pre-emergence, Preemergence) | pest or weed control at 31 g/ha (kochia (Kochia scoparia); pre-emergence, Preemergence) | pest or weed control at 62 g/ha (kochia (Kochia scoparia); pre-emergence, Preemergence) | pest or weed control at 125 g/ha (kochia (Kochia scoparia); pre-emergence, Preemergence) | pest or weed control at 31 g/ha ([5]; pre-emergence, Preemergence) | pest or weed control at 62 g/ha ([5]; pre-emergence, Preemergence) | pest or weed control at 125 g/ha ([5]; pre-emergence, Preemergence) | pest or weed control at 31 g/ha ([8]; pre-emergence, Preemergence) | pest or weed control at 62 g/ha ([8]; pre-emergence, Preemergence) | pest or weed control at 125 g/ha ([8]; pre-emergence, Preemergence) | pest or weed control at 62 g/ha ([9]; pre-emergence, Preemergence) | pest or weed control at 125 g/ha ([9]; pre-emergence, Preemergence)
30%: pest or weed control at 62 g/ha ([2]; post-emergence, Postemergence) | pest or weed control at 125 g/ha ([2]; post-emergence, Postemergence) | plant injury at 62 g/ha ([10]; post-emergence, Postemergence)
95%: pest or weed control at 125 g/ha ([4]; post-emergence, Postemergence) | pest or weed control at 62 g/ha ([5]; post-emergence, Postemergence) | pest or weed control at 125 g/ha ([5]; post-emergence, Postemergence)
70%: pest or weed control at 62 g/ha ([3]; post-emergence, Postemergence) | pest or weed control at 125 g/ha ([3]; post-emergence, Postemergence) | pest or weed control at 31 g/ha (kochia (Kochia scoparia); post-emergence, Postemergence) | pest or weed control at 31 g/ha ([8]; post-emergence, Postemergence) | pest or weed control at 16 g/ha ([8]; pre-emergence, Preemergence)
55%: pest or weed control at 16 g/ha ([3]; post-emergence, Postemergence) | pest or weed control at 31 g/ha ([3]; post-emergence, Postemergence) | pest or weed control at 16 g/ha (kochia (Kochia scoparia); pre-emergence, Preemergence)
50%: pest or weed control at 62 g/ha ([1]; pre-emergence, Preemergence) | pest or weed control at 125 g/ha ([1]; pre-emergence, Preemergence) | plant injury at 125 g/ha [6, 12]
20%: pest or weed control at 16 g/ha ([1]; post-emergence, Postemergence) | pest or weed control at 31 g/ha ([1]; post-emergence, Postemergence) | pest or weed control at 125 g/ha ([1]; post-emergence, Postemergence) | pest or weed control at 31 g/ha ([2]; post-emergence, Postemergence) | pest or weed control at 31 g/ha ([2]; pre-emergence, Preemergence) | plant injury at 125 g/ha ([6]; post-emergence, Postemergence, scale 0 to 100 (0 no effect, 100 complete control), read-out: Plant response rating, Barley, Spring) | plant injury at 125 g/ha ([10]; pre-emergence, Preemergence)
40%: pest or weed control at 125 g/ha ([9]; post-emergence, Postemergence) | plant injury at 125 g/ha ([10]; post-emergence, Postemergence)
85%: pest or weed control at 16 g/ha ([4]; post-emergence, Postemergence) | pest or weed control at 62 g/ha (kochia (Kochia scoparia); post-emergence, Postemergence) | pest or weed control at 125 g/ha (kochia (Kochia scoparia); post-emergence, Postemergence) | pest or weed control at 16 g/ha ([5]; post-emergence, Postemergence)
35%: plant injury at 125 g/ha ([7]; pre-emergence, Preemergence)
45%: plant injury at 62 g/ha [6, 12] | plant injury at 125 g/ha ([7]; post-emergence, Postemergence)
65%: pest or weed control at 16 g/ha ([3]; pre-emergence, Preemergence) | pest or weed control at 16 g/ha (kochia (Kochia scoparia); post-emergence, Postemergence)
